{"source": "ChEMBL document CHEMBL4330144", "about": "“A mitochondria-targeted organic arsenical accelerates mitochondrial metabolic disorder and function injury” (Bioorg Med Chem, 2019)", "key": {"HL-60": {"system": "HL-60", "assay": "Cytotoxicity against human HL60 cells after 24 hrs by MTT assay", "type": "functional, cell-based", "conditions": "HL-60, 24 h"}, "MCF7 [1]": {"system": "MCF7", "assay": "Cytotoxicity against human MCF7 cells after 24 hrs by MTT assay", "type": "functional, cell-based", "conditions": "MCF7, 24 h"}, "HEK293 [2]": {"system": "HEK293", "assay": "Cytotoxicity against HEK293 cells after 24 hrs by MTT assay", "type": "cell-based", "conditions": "Homo sapiens, HEK293, 24 h"}, "HeLa": {"system": "HeLa", "assay": "Cytotoxicity against human HeLa cells after 48 hrs by MTT assay", "type": "functional, cell-based"}, "MCF7 [3]": {"system": "MCF7", "assay": "Cytotoxicity against human MCF7 cells after 48 hrs by MTT assay", "type": "functional, cell-based", "conditions": "MCF7, 48 h"}, "HEK293 [4]": {"system": "HEK293", "assay": "Cytotoxicity against HEK293 cells after 48 hrs by MTT assay", "type": "cell-based", "conditions": "Homo sapiens, HEK293, 48 h"}, "NB-4 [5]": {"system": "NB-4", "assay": "Induction of mitochondrial membrane potential loss in human NB4 cells at 0.6 uM after 3 hrs by JC1 staining based flow cytometry (reference value: 27.7%)", "type": "functional"}, "[6]": {"molecular_target": "T1, Dihydrolipoyllysine-residue acetyltransferase component of pyruvate dehydrogenase complex, mitochondrial (Homo sapiens) (UniProt P10515)", "T1 sequence (whole entry)": "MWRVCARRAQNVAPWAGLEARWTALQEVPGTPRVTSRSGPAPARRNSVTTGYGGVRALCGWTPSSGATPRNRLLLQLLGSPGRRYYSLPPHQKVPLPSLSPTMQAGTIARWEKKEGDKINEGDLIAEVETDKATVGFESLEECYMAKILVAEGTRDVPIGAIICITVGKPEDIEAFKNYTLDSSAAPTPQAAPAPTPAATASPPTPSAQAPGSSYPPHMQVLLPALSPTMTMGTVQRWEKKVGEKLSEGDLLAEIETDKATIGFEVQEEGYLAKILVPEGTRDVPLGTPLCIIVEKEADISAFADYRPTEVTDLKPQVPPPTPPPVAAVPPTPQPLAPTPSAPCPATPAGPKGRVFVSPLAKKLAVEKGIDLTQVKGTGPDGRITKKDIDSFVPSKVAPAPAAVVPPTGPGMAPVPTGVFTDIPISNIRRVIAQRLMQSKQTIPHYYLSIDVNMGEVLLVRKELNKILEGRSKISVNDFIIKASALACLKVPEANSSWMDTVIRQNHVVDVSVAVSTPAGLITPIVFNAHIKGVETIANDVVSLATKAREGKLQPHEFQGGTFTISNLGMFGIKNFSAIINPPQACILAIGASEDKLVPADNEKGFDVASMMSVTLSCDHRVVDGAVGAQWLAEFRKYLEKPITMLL", "assay": "Inhibition of PDHC-E2 activity in human NB4 cells up to 2.4 uM after 3 hrs", "type": "cell-based"}, "NB-4 [7]": {"system": "NB-4", "assay": "Cytotoxicity against human NB4 cells assessed as reduction in cell viability at 1 to 1.2 uM after 24 hrs in presence of DMSA by trypan blue assay", "type": "functional, cell-based"}, "Rattus norvegicus [8]": {"organism": "Rattus norvegicus", "assay": "Induction of mitochondrial membrane potential loss in isolated Wistar rat mitochondria assessed as activity recovery phase rate constant at 50 uM using pyruvate as substrate up to 3 hrs by microcalorimetry", "type": "functional"}, "Rattus norvegicus [9]": {"organism": "Rattus norvegicus", "assay": "Induction of mitochondrial membrane potential loss in isolated Wistar rat mitochondria assessed as activity recovery phase rate constant at 100 uM using pyruvate as substrate up to 3 hrs by microcalorimetry", "type": "functional"}, "Rattus norvegicus [10]": {"organism": "Rattus norvegicus", "assay": "Induction of mitochondrial membrane potential loss in isolated Wistar rat mitochondria assessed as activity recovery phase rate constant at 25 uM using pyruvate as substrate up to 3 hrs by microcalorimetry (reference value: 5.15 to 7.33 10^-3/min)", "type": "functional"}, "Rattus norvegicus [11]": {"organism": "Rattus norvegicus", "assay": "Induction of mitochondrial membrane potential loss in isolated Wistar rat mitochondria assessed as decline phase rate constant at 50 uM using pyruvate as substrate up to 3 hrs by microcalorimetry", "type": "functional"}, "Rattus norvegicus [12]": {"organism": "Rattus norvegicus", "assay": "Induction of mitochondrial membrane potential loss in isolated Wistar rat mitochondria assessed as decline phase rate constant at 100 uM using pyruvate as substrate up to 3 hrs by microcalorimetry", "type": "functional"}, "Rattus norvegicus [13]": {"organism": "Rattus norvegicus", "assay": "Induction of mitochondrial membrane potential loss in isolated Wistar rat mitochondria assessed as maximum power output at 50 uM using pyruvate as substrate up to 3 hrs by microcalorimetry", "type": "functional"}, "Rattus norvegicus [14]": {"organism": "Rattus norvegicus", "assay": "Induction of mitochondrial membrane potential loss in isolated Wistar rat mitochondria assessed as total heat output at 50 uM using pyruvate as substrate up to 3 hrs by microcalorimetry", "type": "functional"}, "Rattus norvegicus [15]": {"organism": "Rattus norvegicus", "assay": "Induction of mitochondrial membrane potential loss in isolated Wistar rat mitochondria assessed as total heat output at 100 uM using pyruvate as substrate up to 3 hrs by microcalorimetry", "type": "functional"}, "Rattus norvegicus [16]": {"organism": "Rattus norvegicus", "assay": "Induction of mitochondrial membrane potential loss in isolated Wistar rat mitochondria assessed as total heat output at 25 uM using pyruvate as substrate up to 3 hrs by microcalorimetry (reference value: 10.32 to 10.36 J)", "type": "functional"}, "Rattus norvegicus [17]": {"organism": "Rattus norvegicus", "assay": "Inhibition of mitochondrial respiration in isolated Wistar rat mitochondria assessed as decrease in succinate/ADP-stimulated respiratory control ratio up to 16 uM by Clark oxygen electrode method", "type": "functional"}, "Rattus norvegicus [18]": {"organism": "Rattus norvegicus", "assay": "Inhibition of ETC1 in isolated Wistar rat mitochondria assessed as reduction in NADH oxidation at 6 to 24 uM preincubated for 3 mins and measured after 5 mins by DB reagent based assay"}, "Rattus norvegicus [19]": {"organism": "Rattus norvegicus", "assay": "Inhibition of ETC4 in isolated Wistar rat mitochondria assessed as decrease in cyochrome-c oxidation at 5 to 15 uM incubated for 3 to 5 mins and measured for up to 3 mins"}, "NB-4 [20]": {"system": "NB-4", "assay": "Induction of ROS generation in human NB4 cells up to 1.2 uM up to 24 hrs by DCFH-DA staining based flow cytometry", "type": "functional, cell-based"}, "NB-4 [21]": {"system": "NB-4", "assay": "Reduction in cell viability in human NB4 cells up to 1.6 uM up to 24 hrs by MTT assay", "type": "functional, cell-based"}, "Rattus norvegicus [22]": {"organism": "Rattus norvegicus", "assay": "Induction of mitochondrial swelling in isolated Wistar rat mitochondria at 30 uM in presence of EGTA", "type": "functional"}, "Rattus norvegicus [23]": {"organism": "Rattus norvegicus", "assay": "Induction of mitochondrial swelling in isolated Wistar rat mitochondria at 30 uM in presence of ruthenium red", "type": "functional"}, "Rattus norvegicus [24]": {"organism": "Rattus norvegicus", "assay": "Induction of inner mitochondrial membrane permeabilization in isolated Wistar rat mitochondria assessed as H+ permeabilization at 5 to 75 uM measured for 10 to 30 mins", "type": "functional"}, "NB-4 [25]": {"system": "NB-4", "assay": "Induction of apoptosis in human NB4 cells assessed as decrease in cell size at 0.6 to 1.2 uM after 24 hrs by Hoechst 33342/propidium iodide staining based confocal microscopic method", "type": "functional"}, "NB-4 [26]": {"system": "NB-4", "assay": "Induction of apoptosis in human NB4 cells assessed as nuclear condensation at 0.6 to 1.2 uM after 24 hrs by Hoechst 33342/propidium iodide staining based confocal microscopic method", "type": "functional, cell-based"}, "NB-4 [27]": {"system": "NB-4", "assay": "Induction of apoptosis in human NB4 cells assessed as necrotic cells after 24 hrs by Annexin V-FITC/propidium iodide staining based flow cytometry (reference value: 0.1%)", "type": "functional"}, "NB-4 [28]": {"system": "NB-4", "assay": "Induction of apoptosis in human NB4 cells assessed as early apoptotic cells after 24 hrs in presence of Z-VAD-fmk by Annexin V-FITC/propidium iodide staining based flow cytometry (reference value: 5%)", "type": "functional"}, "NB-4 [29]": {"system": "NB-4", "assay": "Induction of apoptosis in human NB4 cells assessed as late apoptotic cells after 24 hrs in presence of Nec-1 by Annexin V-FITC/propidium iodide staining based flow cytometry (reference value: 2.9%)", "type": "functional"}, "NB-4 [30]": {"system": "NB-4", "assay": "Induction of apoptosis in human NB4 cells assessed as necrotic cells after 24 hrs in presence of Nec-1 by Annexin V-FITC/propidium iodide staining based flow cytometry (reference value: 0.1%)", "type": "functional"}}, "note": "Activity calls are given as the source filed them. No cut-off for these calls is given here.", "data": [{"smiles": "O=C(CC[P+](c1ccccc1)(c1ccccc1)c1ccccc1)Nc1ccc([As]2SCCCS2)cc1.[Cl-]", "values": [{"measurement": "IC50", "setting": "HL-60", "result": 3.58, "unit": "µM"}, {"measurement": "IC50", "setting": "MCF7 [1]", "result": 4.44, "unit": "µM"}, {"measurement": "IC50", "setting": "HEK293 [2]", "result": 4.63, "unit": "µM"}, {"measurement": "IC50", "setting": "HeLa", "result": 3.91, "unit": "µM"}, {"measurement": "IC50", "setting": "MCF7 [3]", "result": 1.46, "unit": "µM"}, {"measurement": "IC50", "setting": "HEK293 [4]", "result": 2.08, "unit": "µM"}, {"measurement": "Activity", "setting": "NB-4 [5]", "result": 73.9, "unit": "%"}, {"measurement": "inhibition", "setting": "[6]", "result": "Active"}, {"measurement": "Activity", "setting": "NB-4 [7]", "result": "inactive"}, {"measurement": "K", "setting": "Rattus norvegicus [8]", "result": 4.82, "unit": "×10⁻³ /min"}, {"measurement": "K", "setting": "Rattus norvegicus [9]", "result": 3.88, "unit": "×10⁻³ /min"}, {"measurement": "K", "setting": "Rattus norvegicus [10]", "result": 3.82, "unit": "×10⁻³ /min"}, {"measurement": "K", "setting": "Rattus norvegicus [11]", "result": -9.35, "unit": "×10⁻³ /min"}, {"measurement": "K", "setting": "Rattus norvegicus [12]", "result": -9.13, "unit": "×10⁻³ /min"}, {"measurement": "Activity", "setting": "Rattus norvegicus [13]", "result": 107, "unit": "W"}, {"measurement": "Activity", "setting": "Rattus norvegicus [14]", "result": 10.2, "unit": "J"}, {"measurement": "Activity", "setting": "Rattus norvegicus [15]", "result": 11.2, "unit": "J"}, {"measurement": "Activity", "setting": "Rattus norvegicus [16]", "result": 10.8, "unit": "J"}, {"measurement": "inhibition", "setting": "Rattus norvegicus [17]", "result": "Active"}, {"measurement": "inhibition", "setting": "Rattus norvegicus [18]", "result": "Active"}, {"measurement": "inhibition", "setting": "Rattus norvegicus [19]", "result": "Active"}, {"measurement": "Activity", "setting": "NB-4 [20]", "result": "Active"}, {"measurement": "Activity", "setting": "NB-4 [21]", "result": "Active"}, {"measurement": "Activity", "setting": "Rattus norvegicus [22]", "result": "inactive"}, {"measurement": "Activity", "setting": "Rattus norvegicus [23]", "result": "inactive"}, {"measurement": "Activity", "setting": "Rattus norvegicus [24]", "result": "Active"}, {"measurement": "Activity", "setting": "NB-4 [25]", "result": "Active"}, {"measurement": "Activity", "setting": "NB-4 [26]", "result": "Active"}, {"measurement": "Activity", "setting": "NB-4 [27]", "result": 1.4, "unit": "%"}, {"measurement": "Activity", "setting": "NB-4 [28]", "result": 12.7, "unit": "%"}, {"measurement": "Activity", "setting": "NB-4 [29]", "result": 16.2, "unit": "%"}, {"measurement": "Activity", "setting": "NB-4 [30]", "result": 1, "unit": "%"}]}]}
